Results reported in ChEMBL document CHEMBL1201862, “PubChem BioAssay data set” (2004).
Active and inactive are the calls of the source.

Tests used:
[1] = inhibitors of SNCA 5'UTR-driven translation, confirmation, luminescence, H4 neuroglioblastoma cells, dose confirmation (AID 2454); type: functional, cell-based;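 also: H4 neuroglioblastoma cells carrying an alpha-synuclein 5'UTR luciferase reporter; potency for inhibition of the luciferase signal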
[2] = cytotoxicity in HEK-293T cells, dose response, cytotoxicity control for TCR NF-kB inhibitor project, luminescence, T-cell screen hits (AID 489026); type: functional, cell-based;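 also: cells exposed to compound about 14 hours before the viability readout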
[3] = cells; type: functional, cell-based
[4] = Luminescence Cell-Based Dose Response HTS to Identify Inhibitors of 5'UTR Stem-Loop Driven Prion Protein mRNA Translation in H4 Neuroglioblastoma Cells. [Related pubchem assays: 1827 (Project Summary), 1813 (Primary HTS)]; type: functional
[5] = inhibitors of firefly luciferase expression or activity, dose response, H4 neuroglioma cells, luminescence (AID 1990); type: functional, cell-based
[6] = luciferase reporter signal reduction – luminescence, H4-C neuroglioblastoma cells, dose response (AID 2458); type: functional, cell-based;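 also: H4 neuroglioblastoma cells stably carrying a luciferase reporter gene fusion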
[7] = inhibitors of SNCA 5'UTR-driven reporter translation, confirmation, H4 neuroglioma cells, luminescence (AID 1988); type: functional, cell-based
[8] = cells; type: functional
[9] = THP-1 cell cytotoxicity, dose response, cytotoxicity control for non-replicating M. tuberculosis project (AID 489025); type: functional
[10] = HepG2 cell cytotoxicity, dose response, cytotoxicity control for non-replicating M. tuberculosis project (AID 489018); type: functional; details: Mycobacterium tuberculosis
[11] = Luminescence Cell-Based Dose Retest to Confirm Inhibitors of Cancer Stem Cells. [Related pubchem assays (depositor defined):AID2717, AID2721]; type: functional; details: Homo sapiens
[12] = THP-1 cell cytotoxicity, dose response, cytotoxicity control for Vif-APOBEC3G degradation inhibitor project, THP-1 cells (AID 1117359); type: functional; details: Human immunodeficiency virus 1, THP-1
[13] = target: SUMO-activating enzyme (Homo sapiens, UniProt Q9UBT2); assay: SUMOylation inhibitor hit validation, confirmation, SUMOylation inhibitor project, biochemical, AlphaScreen (AID 2018); type: functional
[14] = cytotoxicity toward DRD oncogenic fibroblasts, dose response, cell-based, non-viral oncogenic, luminescence (AID 1934); type: functional; details: Homo sapiens
[15] = test system: BJ; assay: cytotoxicity toward Ras-transformed BJeLR fibroblasts, dose response, cell-based, alamar blue fluorescence, cherrypicked samples (AID 2631); type: functional; details: Homo sapiens;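 also: confirmatory dose-response assay in RAS-dependent BJ fibroblasts engineered with TERT, LT and ST, with cytotoxicity read by fluorescence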
[16] = test system: BJ; assay: cytotoxicity toward BJ-TERT-LT-ST fibroblasts, dose response, cell-based, RAS-independent, luminescence (AID 1935); type: functional; details: Homo sapiens;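 also: BJ fibroblasts immortalized with TERT plus LT and ST oncogenes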
[17] = test system: BJ; assay: cytotoxicity toward BJ-TERT fibroblasts, dose response, cell-based, RAS-independent, luminescence (AID 1933); type: functional; details: Homo sapiens
[18] = test system: BJ; assay: cells; type: functional, cell-based; details: Homo sapiens
[19] = target: T1, Alkaline phosphatase, tissue-nonspecific isozyme (Homo sapiens, UniProt P05186); assay: TNAP enzyme inhibition by screening hits, dose response, selectivity assay for mouse IAP inhibitor project, biochemical, human TNAP, uHTS hits (AID 488906); type: functional
T1 sequence (P05186 whole entry): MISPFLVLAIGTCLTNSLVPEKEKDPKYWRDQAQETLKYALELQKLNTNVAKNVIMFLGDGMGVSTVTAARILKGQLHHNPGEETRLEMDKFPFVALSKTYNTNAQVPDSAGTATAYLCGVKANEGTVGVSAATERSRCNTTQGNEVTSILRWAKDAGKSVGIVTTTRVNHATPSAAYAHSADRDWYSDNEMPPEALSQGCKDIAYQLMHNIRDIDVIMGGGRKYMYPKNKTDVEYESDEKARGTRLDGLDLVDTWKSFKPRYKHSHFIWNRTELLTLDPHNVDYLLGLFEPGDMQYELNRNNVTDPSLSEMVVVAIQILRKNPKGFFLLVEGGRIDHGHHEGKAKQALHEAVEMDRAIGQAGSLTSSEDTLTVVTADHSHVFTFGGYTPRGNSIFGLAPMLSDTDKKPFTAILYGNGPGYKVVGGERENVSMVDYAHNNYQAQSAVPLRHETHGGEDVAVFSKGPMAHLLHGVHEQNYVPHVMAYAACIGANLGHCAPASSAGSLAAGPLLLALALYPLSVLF

[20] = target: Intestinal-type alkaline phosphatase (Homo sapiens, UniProt P09923); assay: inhibition of human intestinal alkaline phosphatase – biochemical, dose response (AID 488876); type: functional
[21] = target: Intestinal-type alkaline phosphatase (Mus musculus, UniProt P24822); assay: PubChem AID 488785; type: functional
[22] = target: DNA dC->dU-editing enzyme APOBEC-3G (Homo sapiens, UniProt Q9HC16); assay: Dose Response confirmation of small molecule APOBEC3G DNA Deaminase Inhibitors via a fluorescence-based single-stranded DNA deaminase assay. [Related pubchem assays (depositor defined):AID493012, AID493028]; type: functional
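For AC50 in this document: cells exposed to compound for roughly 70 hours or longer before luminescence read.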

SUMO-activating enzyme, sequence (Q9UBE0 whole entry): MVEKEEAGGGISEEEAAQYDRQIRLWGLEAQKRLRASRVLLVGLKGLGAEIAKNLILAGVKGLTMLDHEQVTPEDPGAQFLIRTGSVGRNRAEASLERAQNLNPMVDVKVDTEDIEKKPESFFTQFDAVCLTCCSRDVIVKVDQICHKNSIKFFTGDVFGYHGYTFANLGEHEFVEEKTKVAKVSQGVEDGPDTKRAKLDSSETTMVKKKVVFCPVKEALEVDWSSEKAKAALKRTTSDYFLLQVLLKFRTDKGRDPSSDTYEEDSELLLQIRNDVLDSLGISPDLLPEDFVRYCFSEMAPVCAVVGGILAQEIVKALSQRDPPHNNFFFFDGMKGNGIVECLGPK
SUMO-activating enzyme, sequence (Q9UBT2 whole entry): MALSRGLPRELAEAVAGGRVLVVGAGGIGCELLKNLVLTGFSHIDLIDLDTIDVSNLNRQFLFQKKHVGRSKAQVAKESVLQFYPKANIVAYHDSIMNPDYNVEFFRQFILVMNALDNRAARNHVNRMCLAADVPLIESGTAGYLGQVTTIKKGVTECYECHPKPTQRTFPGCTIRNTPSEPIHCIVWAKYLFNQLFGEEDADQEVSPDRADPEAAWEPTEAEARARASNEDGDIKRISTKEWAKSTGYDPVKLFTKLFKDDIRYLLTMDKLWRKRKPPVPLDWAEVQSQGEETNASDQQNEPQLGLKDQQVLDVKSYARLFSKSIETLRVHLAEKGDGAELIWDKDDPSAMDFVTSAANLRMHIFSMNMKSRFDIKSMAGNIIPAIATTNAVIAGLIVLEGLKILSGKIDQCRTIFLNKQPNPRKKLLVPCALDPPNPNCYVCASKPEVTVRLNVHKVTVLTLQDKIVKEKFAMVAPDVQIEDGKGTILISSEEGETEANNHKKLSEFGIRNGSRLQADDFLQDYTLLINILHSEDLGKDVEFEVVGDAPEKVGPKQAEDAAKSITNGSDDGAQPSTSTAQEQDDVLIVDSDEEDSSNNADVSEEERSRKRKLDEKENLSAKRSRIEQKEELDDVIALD
Intestinal-type alkaline phosphatase (Mus musculus, UniProt P24822), sequence (P24822 whole entry): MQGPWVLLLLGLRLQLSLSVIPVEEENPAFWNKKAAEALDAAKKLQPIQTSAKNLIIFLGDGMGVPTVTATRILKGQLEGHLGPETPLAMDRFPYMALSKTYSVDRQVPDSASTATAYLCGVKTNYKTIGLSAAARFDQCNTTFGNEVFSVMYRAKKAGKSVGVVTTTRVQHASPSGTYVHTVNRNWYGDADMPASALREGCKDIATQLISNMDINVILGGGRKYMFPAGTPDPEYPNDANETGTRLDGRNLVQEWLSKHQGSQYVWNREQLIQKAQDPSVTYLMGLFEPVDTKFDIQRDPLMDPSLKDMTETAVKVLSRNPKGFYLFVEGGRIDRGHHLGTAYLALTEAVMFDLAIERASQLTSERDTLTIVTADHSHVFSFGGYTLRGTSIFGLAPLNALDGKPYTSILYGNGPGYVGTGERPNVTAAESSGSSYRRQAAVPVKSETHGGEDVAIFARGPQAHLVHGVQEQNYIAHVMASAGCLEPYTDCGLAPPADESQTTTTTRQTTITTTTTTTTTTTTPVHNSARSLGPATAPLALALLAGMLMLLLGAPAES
DNA dC->dU-editing enzyme APOBEC-3G, sequence (Q9HC16 whole entry): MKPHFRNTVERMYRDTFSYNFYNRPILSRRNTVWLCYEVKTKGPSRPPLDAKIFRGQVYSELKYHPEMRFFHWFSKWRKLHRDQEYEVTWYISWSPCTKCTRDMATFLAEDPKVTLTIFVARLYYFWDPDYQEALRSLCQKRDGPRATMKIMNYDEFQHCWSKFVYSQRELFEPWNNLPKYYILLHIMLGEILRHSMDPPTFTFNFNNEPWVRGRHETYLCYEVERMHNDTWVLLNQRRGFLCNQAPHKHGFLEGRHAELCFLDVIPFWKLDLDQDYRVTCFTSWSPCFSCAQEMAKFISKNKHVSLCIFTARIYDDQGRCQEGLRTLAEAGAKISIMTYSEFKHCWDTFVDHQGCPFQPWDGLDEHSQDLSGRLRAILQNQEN
Intestinal-type alkaline phosphatase (Homo sapiens, UniProt P09923), sequence (P09923 whole entry): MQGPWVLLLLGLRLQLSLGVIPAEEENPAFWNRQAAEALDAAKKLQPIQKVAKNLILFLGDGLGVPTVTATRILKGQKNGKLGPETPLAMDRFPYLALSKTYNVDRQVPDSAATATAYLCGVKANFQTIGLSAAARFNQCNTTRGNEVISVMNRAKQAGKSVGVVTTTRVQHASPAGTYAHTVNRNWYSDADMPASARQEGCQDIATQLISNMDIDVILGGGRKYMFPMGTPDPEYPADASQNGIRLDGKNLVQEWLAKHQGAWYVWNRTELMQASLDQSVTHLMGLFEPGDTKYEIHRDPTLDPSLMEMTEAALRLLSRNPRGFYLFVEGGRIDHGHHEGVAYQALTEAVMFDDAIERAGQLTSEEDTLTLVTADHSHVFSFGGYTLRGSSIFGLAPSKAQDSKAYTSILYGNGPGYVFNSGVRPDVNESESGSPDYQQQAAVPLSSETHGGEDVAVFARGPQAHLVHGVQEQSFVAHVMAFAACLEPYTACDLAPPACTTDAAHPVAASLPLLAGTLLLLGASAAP

## Cc1cc(NC(=O)CSc2nc3ccccc3c(=O)n2C2CCCC2)no1
[1]
  EC50: 1890 nM (inconclusive)
[2]
  IC50: > 80000 nM (inactive)
[3]
  EC50: > 12000 nM (not active)
[4]
  EC50: < 100 nM (active)
[5]
  EC50: 4730 nM (inconclusive)
[6]
  EC50: 1500 nM (active)
[7]
  EC50: < 100 nM (active)

## CCC(C)NCCOc1ccc(C(C)(C)c2ccccc2)cc1 (stereo unspecified)
[8]
  IC50: 11700 nM (active)
[9]
  CC50: 27600 nM (active)
[10]
  CC50: 19500 nM (active)
[11]
  AC50: 1630 nM (active)

## O=C(CCCN1C(=O)/C(=C\c2ccco2)SC1=S)Nc1cccc2ccccc12
[12]
  CC50: 29000 nM (active)

## CCOC(=O)c1c(NC(=O)CCN2CCOCC2)sc(C)c1-c1ccccc1
[12]
  CC50: > 40000 nM (active)

## O=C(Nc1ccncc1)C1CCN(S(=O)(=O)c2c(Cl)cccc2Cl)CC1
[12]
  CC50: > 40000 nM (active)

## O=C1N(c2ccc(Cl)c(Cl)c2)CN(Cc2ccccc2)CN1n1cnnc1
[13]
  IC50: > 100000 nM (inactive)

## COc1ccccc1N1CCN(C(=O)c2cc(=O)c3cc(C)cc(C)c3o2)CC1
[1]
  EC50: 259 nM (active)
[2]
  IC50: > 80000 nM (inactive)
[14]
  EC50: 375 nM (active)
[3]
  EC50: 415 nM (active)
[15]
  EC50: < 104 nM (active)
[16]
  EC50: 229 nM (inconclusive)
[4]
  EC50: 127 nM (active)
[5]
  EC50: 101 nM (active)
[6]
  EC50: 289 nM (active)
[17]
  EC50: 346 nM (active)
[18]
  EC50: 938 nM (active)
[7]
  EC50: < 100 nM (active)

## COc1ccc(C2CC(c3ccccc3Cl)=NN2c2ccc(S(N)(=O)=O)cc2)cc1 (stereo unspecified)
[19]
  IC50: > 100000 nM (inactive)
[20]
  IC50: > 100000 nM (inactive)
[21]
  IC50: 6020 nM (active)

## O=C(Cc1ccc(Cl)cc1Cl)Nc1cccc(S(=O)(=O)Nc2ccccc2F)c1
[22]
  IC50: 29400 nM (active)
